Reference: ChEMBL document CHEMBL1201862, “PubChem BioAssay data set” (2004)
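Method: 48-hour compound exposure of cells in 96-well plates, five concentrations, linear interpolation of endpoints. GI50 marks 50% less growth.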 Active and inactive are the calls of the source. No stated cut-off is given here; in the data, active = GI50 up to about 1.1 µM and inactive = higher. Where a SMILES comes first, the peptide text is derived from it.

Columns and labels:
Test in all cases: growth of human tumour cells (NCI), 48 h
HL-60 = test system: HL-60
CAKI-1 = test system: CAKI-1
BT-549 = test system: BT-549
M14 = test system: M14
OVCAR-4 = test system: OVCAR-4
SW-620 = test system: SW-620
OVCAR-3 = test system: OVCAR-3
ACHN = test system: ACHN
Malme-3M = test system: Malme-3M
PC-3 = test system: PC-3
RPMI-8226 = test system: RPMI-8226
A498 = test system: A498
SF-539 = test system: SF-539
MCF7 = test system: MCF7
SK-MEL-2 = test system: SK-MEL-2
TK-10 = test system: TK-10
UACC-62 = test system: UACC-62
NCI-H460 = test system: NCI-H460
NCI-H522 = test system: NCI-H522
Hs-578T = test system: Hs-578T

CC(C)(CCc1nc2ccccc2[nH]1)C(=O)O
GI50 (HL-60): > 100 µM (inactive)
GI50 (CAKI-1): > 100 µM (inactive)
GI50 (BT-549): > 100 µM (inactive)
GI50 (M14): > 100 µM (inactive)
GI50 (OVCAR-4): > 100 µM (inactive)
GI50 (SW-620): > 100 µM (inactive)
GI50 (OVCAR-3): > 100 µM (inactive)
GI50 (ACHN): > 100 µM (inactive)
GI50 (Malme-3M): > 100 µM (inactive)
GI50 (PC-3): > 100 µM (inactive)
GI50 (RPMI-8226): > 100 µM (inactive)
GI50 (A498): > 49.2 µM (inactive)
GI50 (SF-539): > 100 µM (inactive)
GI50 (MCF7): > 100 µM (inactive)
GI50 (SK-MEL-2): > 100 µM (inactive)
GI50 (TK-10): > 100 µM (inactive)
GI50 (UACC-62): > 100 µM (inactive)
GI50 (NCI-H460): > 100 µM (inactive)
GI50 (NCI-H522): > 100 µM (inactive)
GI50 (Hs-578T): > 100 µM (inactive)

COC(=O)c1cc(O)c(O)c(O)c1-c1c(O)c(O)c(O)c(SC[C@H](NC(=O)OCc2ccccc2)C(=O)OCc2ccccc2)c1C(=O)OC
GI50 (HL-60): 15.1 µM (inactive)
GI50 (CAKI-1): 18.7 µM (inactive)
GI50 (BT-549): 34.7 µM (inactive)
GI50 (M14): 17.9 µM (inactive)
GI50 (OVCAR-4): 26.5 µM (inactive)
GI50 (SW-620): 23.8 µM (inactive)
GI50 (OVCAR-3): 34 µM (inactive)
GI50 (ACHN): 22.5 µM (inactive)
GI50 (Malme-3M): 78.5 µM (inactive)
GI50 (PC-3): 22.6 µM (inactive)
GI50 (RPMI-8226): 21.8 µM (inactive)
GI50 (A498): 31.5 µM (inactive)
GI50 (SF-539): 28.4 µM (inactive)
GI50 (MCF7): 18 µM (inactive)
GI50 (SK-MEL-2): 19.9 µM (inactive)
GI50 (TK-10): 67.9 µM (inactive)
GI50 (UACC-62): 22.3 µM (inactive)
GI50 (NCI-H460): 29.2 µM (inactive)
GI50 (NCI-H522): 22.3 µM (inactive)
GI50 (Hs-578T): 29.6 µM (inactive)

Nc1ccccc1OCCCOc1ccccc1N
GI50 (HL-60): > 100 µM (inactive)
GI50 (CAKI-1): > 100 µM (inactive)
GI50 (BT-549): > 100 µM (inactive)
GI50 (M14): > 100 µM (inactive)
GI50 (OVCAR-4): > 100 µM (inactive)
GI50 (SW-620): > 100 µM (inactive)
GI50 (OVCAR-3): > 100 µM (inactive)
GI50 (ACHN): > 100 µM (inactive)
GI50 (Malme-3M): > 100 µM (inactive)
GI50 (PC-3): > 100 µM (inactive)
GI50 (RPMI-8226): > 100 µM (inactive)
GI50 (A498): > 100 µM (inactive)
GI50 (SF-539): > 100 µM (inactive)
GI50 (MCF7): > 100 µM (inactive)
GI50 (SK-MEL-2): > 100 µM (inactive)
GI50 (TK-10): > 100 µM (inactive)
GI50 (UACC-62): > 100 µM (inactive)
GI50 (NCI-H460): > 100 µM (inactive)
GI50 (NCI-H522): > 100 µM (inactive)
GI50 (Hs-578T): > 100 µM (inactive)

COc1ccc(NC(=S)N/N=C(\c2ccccc2)c2ccccn2)cc1
GI50 (HL-60): < 0.01 µM (active)
GI50 (CAKI-1): 0.034 µM (active)
GI50 (BT-549): 4.94 µM (inactive)
GI50 (M14): 0.0117 µM (active)
GI50 (OVCAR-4): 0.7 µM (active)
GI50 (SW-620): < 0.01 µM (active)
GI50 (OVCAR-3): < 0.01 µM (active)
GI50 (ACHN): < 0.027 µM (active)
GI50 (Malme-3M): 0.172 µM (active)
GI50 (PC-3): < 0.01 µM (active)
GI50 (RPMI-8226): < 0.01 µM (active)
GI50 (A498): 0.587 µM (active)
GI50 (SF-539): 0.348 µM (active)
GI50 (MCF7): < 0.01 µM (active)
GI50 (SK-MEL-2): 2.5 µM (inactive)
GI50 (TK-10): 0.0244 µM (active)
GI50 (UACC-62): 0.104 µM (active)
GI50 (NCI-H460): 0.0931 µM (active)
GI50 (NCI-H522): 0.0552 µM (active)
GI50 (Hs-578T): 10.3 µM (inactive)

C=C1C(=O)O[C@H]2[C@@H](O)[C@H](C)CCC/C(C)=C/CC[C@@]3(C)O[C@@H]3C[C@@H]12
GI50 (HL-60): 2.47 µM (inactive)
GI50 (CAKI-1): 2.33 µM (inactive)
GI50 (BT-549): 3.3 µM (inactive)
GI50 (M14): 3.94 µM (inactive)
GI50 (OVCAR-4): 7.16 µM (inactive)
GI50 (SW-620): 10.2 µM (inactive)
GI50 (OVCAR-3): 11.3 µM (inactive)
GI50 (ACHN): 2.16 µM (inactive)
GI50 (Malme-3M): 11.5 µM (inactive)
GI50 (PC-3): 13.7 µM (inactive)
GI50 (RPMI-8226): 8.38 µM (inactive)
GI50 (A498): 12.4 µM (inactive)
GI50 (SF-539): 2.59 µM (inactive)
GI50 (MCF7): 7.18 µM (inactive)
GI50 (SK-MEL-2): 18.1 µM (inactive)
GI50 (TK-10): 1.86 µM (inactive)
GI50 (UACC-62): 9.79 µM (inactive)
GI50 (NCI-H460): 5.89 µM (inactive)
GI50 (NCI-H522): 2.68 µM (inactive)
GI50 (Hs-578T): 14.7 µM (inactive)

COc1ccc(/C(=N/N=c2\[nH]c3ccccc3n2Cc2ccccc2)C(=O)O)cc1
GI50 (HL-60): 3.19 µM (inactive)
GI50 (CAKI-1): 16.7 µM (inactive)
GI50 (BT-549): 25.1 µM (inactive)
GI50 (M14): 14.5 µM (inactive)
GI50 (OVCAR-4): 7.76 µM (inactive)
GI50 (SW-620): 27 µM (inactive)
GI50 (OVCAR-3): 2.52 µM (inactive)
GI50 (ACHN): 22.6 µM (inactive)
GI50 (Malme-3M): 17.6 µM (inactive)
GI50 (PC-3): 7.41 µM (inactive)
GI50 (RPMI-8226): 10 µM (inactive)
GI50 (A498): 13.1 µM (inactive)
GI50 (SF-539): 23.7 µM (inactive)
GI50 (MCF7): 13.2 µM (inactive)
GI50 (SK-MEL-2): 28.4 µM (inactive)
GI50 (TK-10): 35.3 µM (inactive)
GI50 (UACC-62): 8.36 µM (inactive)
GI50 (NCI-H460): 4.8 µM (inactive)
GI50 (NCI-H522): 8.65 µM (inactive)
GI50 (Hs-578T): 31.7 µM (inactive)

CN(C)C(=S)/N=c1\ssc(=S)n1Cc1cccs1
GI50 (HL-60): 2.44 µM (inactive)
GI50 (CAKI-1): 3.11 µM (inactive)
GI50 (BT-549): 11 µM (inactive)
GI50 (M14): 3.01 µM (inactive)
GI50 (OVCAR-4): 14.6 µM (inactive)
GI50 (SW-620): 2.07 µM (inactive)
GI50 (OVCAR-3): 1.76 µM (inactive)
GI50 (ACHN): 9.35 µM (inactive)
GI50 (Malme-3M): 2.4 µM (inactive)
GI50 (PC-3): 2.4 µM (inactive)
GI50 (RPMI-8226): 5.81 µM (inactive)
GI50 (A498): 4.13 µM (inactive)
GI50 (SF-539): 2.55 µM (inactive)
GI50 (MCF7): 1.99 µM (inactive)
GI50 (SK-MEL-2): 2.88 µM (inactive)
GI50 (TK-10): 8.24 µM (inactive)
GI50 (UACC-62): 2.7 µM (inactive)
GI50 (NCI-H460): 3.73 µM (inactive)
GI50 (NCI-H522): 0.39 µM (active)
GI50 (Hs-578T): 1.51 µM (inactive)

O=C(NCCc1ccccc1)c1cc(/C=C/c2cc(O)ccc2O)ccc1O
GI50 (HL-60): 2.12 µM (inactive)
GI50 (CAKI-1): 2.94 µM (inactive)
GI50 (BT-549): 1.78 µM (inactive)
GI50 (M14): 5.56 µM (inactive)
GI50 (OVCAR-4): 2.27 µM (inactive)
GI50 (SW-620): 5.71 µM (inactive)
GI50 (OVCAR-3): 2.67 µM (inactive)
GI50 (ACHN): 2.2 µM (inactive)
GI50 (Malme-3M): 2.22 µM (inactive)
GI50 (PC-3): 3.56 µM (inactive)
GI50 (RPMI-8226): 1.82 µM (inactive)
GI50 (A498): 4.4 µM (inactive)
GI50 (SF-539): 2.38 µM (inactive)
GI50 (MCF7): 2.62 µM (inactive)
GI50 (SK-MEL-2): 3.57 µM (inactive)
GI50 (TK-10): 2.93 µM (inactive)
GI50 (UACC-62): 2.03 µM (inactive)
GI50 (NCI-H460): 9.44 µM (inactive)
GI50 (NCI-H522): 1.64 µM (inactive)
GI50 (Hs-578T): 5.2 µM (inactive)

CC(=O)NC(CS)C(=O)NC(CO)C(=O)NC(CO)C(=O)NC(Cc1c[nH]c2ccccc12)C(=O)N1CCCC1C(=O)NC(CO)C(=O)NC(Cc1c[nH]c2ccccc12)C(=O)NC(Cc1c[nH]cn1)C(=O)NC(CO)C(=O)NC(Cc1c[nH]c2ccccc12)C(=O)NCC(=O)NCC(=O)NC(CC(=O)O)C(=O)NC(CCC(N)=O)C(=O)NC(CCCCN)C(=O)NC(Cc1ccccc1)C(=O)NC(CCCNC(=N)N)C(=O)NC(CCCCN)C(N)=O (stereo not given) (Ac-CSSWPSWHSWGGDQKFRK-NH2; configuration not given here)
GI50 (HL-60): > 25 µM (inactive)
GI50 (CAKI-1): > 25 µM (inactive)
GI50 (BT-549): > 25 µM (inactive)
GI50 (M14): > 25 µM (inactive)
GI50 (OVCAR-4): > 25 µM (inactive)
GI50 (SW-620): > 25 µM (inactive)
GI50 (OVCAR-3): > 25 µM (inactive)
GI50 (ACHN): > 25 µM (inactive)
GI50 (Malme-3M): > 25 µM (inactive)
GI50 (PC-3): > 25 µM (inactive)
GI50 (RPMI-8226): > 25 µM (inactive)
GI50 (A498): > 25 µM (inactive)
GI50 (SF-539): > 25 µM (inactive)
GI50 (MCF7): > 25 µM (inactive)
GI50 (SK-MEL-2): > 25 µM (inactive)
GI50 (TK-10): > 25 µM (inactive)
GI50 (UACC-62): > 25 µM (inactive)
GI50 (NCI-H460): > 25 µM (inactive)
GI50 (NCI-H522): > 25 µM (inactive)
GI50 (Hs-578T): > 25 µM (inactive)
